Results published in US20260041637A1, “VESICLES BASED ON GLUCOSE-DERIVED SURFACTANTS AND PHYTOSTEROLS” (NANOMOL TECHNOLOGIES, S.L., priority 2022, published 2026).
One block for each molecule: values may come before it.

Experiments:
[1] = Antioxidant capacity by 2,2-diphenyl-1-picrylhydrazyl (DPPH) assay; assay type: biochemical; settings: molar ratio DPPH:TCP 1:0.3, 30 minutes in the dark, 517 nm; mean ± s.d. of two independent experiments
Procedure: DPPH assay is a well-known and established method to measure antioxidant capacity of a molecule. […] When DPPH is in its oxidated form presents a violet color that changes to yellow/white when is reduced. This color change can be followed using UV-Vis spectroscopy. The assay was carried out in ethanol always maintaining a molar ratio DPPH: TCP of 1:0.3. In order to have 3 mL of final volume, DPPH was diluted in ethanol to have a final concentration of 63.4 μM. Free TCP and TCP DELOS-NVs were diluted to have a final concentration of 19 µM of TCP. Each solution was then mixed and kept at room temperature for 30 minutes in the dark. The absorbance of the solution was measured at 517 nm using a Thermo Scientific™ Evolution™ 201/220 UV-Visible spectrophotometer (Thermo Scientific). The percentage of TCP antioxidant capacity was calculated using the Equation 3, where Abscontrol is the absorbance at 517 nm of DPPH in ethanol and Abssample is the absorbance at 517 nm of the sample prepared as described (free TCP or TCP DELOS-NVs with DPPH).
The antioxidant capacity of TCP was evaluated once it was integrated in the NVs to verify that the molecule was still active after the encapsulation. The antioxidant capacity was measured by the 2,2-diphenyl-1-picrylhydrazyl (DPPH) assay. DPPH is a stable free radical that can be reduced in the presence of hydrogen-donating antioxidants such as TCP. […]

[2] = Entrapment efficiency (EE) by UV-Vis spectroscopy; assay type: physicochemical
Procedure: Entrapment efficiency (EE) of each active was determined by UV-Vis absorbance using an UV-Vis spectrophotometer (Thermo Scientific™ Evolution™ 201 UV-Visible Spectrophotometers, Thermo Scientific). For lipophilic actives (7-DHC, CBD, TCP, DiD and Dil) Vs membrane was dissociated to release the active by diluting the sample in ethanol at 80% (v/v) until a value of absorption below 1 and inside the calibration curve obtained. The concentration of each active was determined using a calibration curve, using the same media than the corresponding Vs system. The active was quantified before and after filtering process and both values were used to calculate the EE using Equation 1 (as described herein). As the lipophilic molecules are not soluble in aqueous media, it was considered that the filtered sample contained only the integrated active, since all the precipitated and non-integrated active should remain in the filter.
A different protocol was followed for hydrophilic actives (NCA, AG and MTX), in which, after the Vs filtration process, another step was applied to separate the non-integrated active. For NCA and AG, an ultracentrifugation step of the filtered sample was performed (6h, 4° C., 600000g) (Sorvall Discovery M150 Micro-Ultracentrifuge, Thermo Scientific). […]

[3] = Entrapment efficiency (EE) by fluorescence spectroscopy (proteins); assay type: physicochemical
Procedure: iii) Entrapment efficiency (EE) by fluorescence spectroscopy: Entrapment efficiency (EE) of both proteins was determined by fluorescence spectroscopy using a Varian Cary Eclipse (Agilent Technolo-gies, Santa Clara, USA). In both cases, the separation of the non-integrated protein from that integrated in Vs was done by TFF (KrosFlo® Research 11i TFF diafiltration system (KR2i), with a mPES filter hollow column cut-off 300 KDa (C04-E100-05-N, Spectrum Labs, SL). Then, the permeate fraction was recovered and analyzed by fluorescence, exciting the proteins at 278 nm. The concentration was calculated using a calibration curve using the same media of the corresponding Vs system. The entrapment efficiency was then calculated using Equation 2, as described herein.

Molecule: Cc1c(C)c2c(c(C)c1O)CCC(C)(CCCC(C)CCCC(C)CCCC(C)C)O2 (racemic) [Free TCP, DL-alpha-Tocopherol]
Antioxidant capacity (%) [1]: 60 ± 9%

Molecule: C=C(C)[C@@H]1CCC(C)=C[C@H]1c1c(O)cc(CCCCC)cc1O [CBD, cannabidiol]
EE [%] ([2]; active-loaded Sit:LGC (1:1) and Sit:LGL:LGC (1:0.8:0.2) Vs): 22-33%

EE [%] ([2]; active-loaded Sit:LGL-p:DC-Chol (0.8:1:0.2) Vs): 88%
Molecule: CN(Cc1cnc2nc(N)nc(N)c2n1)c1ccc(C(=O)N[C@@H](CCC(=O)O)C(=O)O)cc1 [MTX, Methotrexate]

Molecule: HGH: Human growth hormone, small protein, encapsulated active
EE [%] ([3]; protein (HGH) in Sit:LGL-p:DC-Chol (0.8:1:0.2) Vs): over 99%

Molecule: b-FGF: basic fibroblast growth factor, small protein, encapsulated active
EE [%] ([3]; protein (b-FGF) in negatively charged Sit:LGC (1:1) Vs): > 99%
